Results published in article PMC2009935, “Biological activities of dihydrodiols derived from two polycyclic hydrocarbons in rodent test systems” (British Journal of Cancer, 1979).

Assays:
mouse skin [1] = test system: mouse skin
mouse skin [2] = settings: total doses 75-150 ug in 3 applications
Wistar rats = experiment: Induction of sarcomas after s.c. injection into Wistar rats
mouse skin [3] = experiment: Short-term test on mouse skin: suppression of sebaceous glands
[4] = single dose 25 ug, TPA promotion
[5] = female Wistar rats, single s.c. injection 0.9 mg in olive oil, up to 9 months

Cc1c2ccccc2cc2c3c(ccc12)C=C[C@@H](O)[C@@H]3O (relative stereo) [1,2-dihydrodiol, trans-1,2-Dihydro-1,2-dihydroxy-7-methylbenz[a]anthracene]
tumour development in the initiated mice (in words) (mouse skin [1]; [4]): only really increased after the amount of TPA applied had been doubled

Cc1c2c(cc3c1ccc1ccccc13)C=C[C@@H](O)[C@@H]2O (relative stereo) [8,9-dihydrodiol, trans-8,9-dihydro-8,9-dihydroxy-7-methylbenz[a]anthracene]
tumour development in the initiated mice (in words) (mouse skin [1]; [4]): only really increased after the amount of TPA applied had been doubled

O[C@H]1C=Cc2c(cc3ccc4cccc5ccc2c3c45)[C@@H]1O (relative stereo) [trans-7,8-Dihydro-7,8-dihydroxy-BP, trans-7,8-Dihydro-7,8-dihydroxybenzo[a]pyrene]
induction of hyperplasia in mouse skin (in words) (mouse skin [2]): some activity as a hyperplastic agent | sarcomas induced in the group of rats (Wistar rats; [5]): one | activity as s.c. carcinogen in rats (in words) (Wistar rats; single s.c. injection 0.9 mg in olive oil): very much less active than benzo[a]pyrene as an s.c. carcinogen in rats | suppression of sebaceous glands in mouse skin (in words) (mouse skin [3]; total doses 75-150 ug in 3 applications): some activity

Cc1c2ccccc2cc2c1ccc1ccccc12 [7-methylbenz[a]anthracene, reference compound]
tumour-initiating activity on mouse skin (in words) (mouse skin [1]; female CDI mice, single dose 25 ug in acetone on dorsal skin, TPA thrice weekly for 52 weeks): more active than the related 1,2-, 5,6- and 8,9-dihydrodiols | skin-tumour incidence plateau, first or only, time after initiation (mouse skin [1]; [4]): > 40 weeks

c1ccc2c(c1)cc1ccc3cccc4ccc2c1c34 [BP, benzo[a]pyrene, reference compound]
No. with sarcomas (Wistar rats; Table III, female Wistar rats, single s.c. injection 0.9 mg in 0.5 ml olive oil, up to 9 months, 30 animals): 24 | sarcomas induced in the group of rats (Wistar rats; [5]): 24/30 | Sebaceous glands, No. present (mouse skin [3]; total dose 150.0 ug in 3 applications in acetone, 8 days after first treatment, 12 microscopic fields): 0.0
